Values quoted from earlier work, collected in patent publication US20220310211A1, “NON-TRANSITORY COMPUTER-READABLE STORAGE MEDIUM, INFORMATION PROCESSING APPARATUS, AND INFORMATION PROCESSING METHOD” (FUJITSU LIMITED, priority 2021, published 2022).

Conditions: PubChem AID 1006; binary Active/Inactive

For `Cc1cccc(Cc2cnc(O[Si](C)(C)C)[nH]2)c1C` [CID603597], the biological activity is listed as “Active”.
